As usually defined, the EC50 is the concentration at which the effect is half-maximal. A higher EC50 goes with a need for much substance. As a reminder, the DC50 is the concentration giving 50% degradation.

Where only a bound is given, the exact number is not on record here.

In patent US20230391772A1, “METHODS AND COMPOSITIONS FOR TARGETED PROTEIN DEGRADATION” (Ranok Therapeutics (Hangzhou) Co. Ltd., priority 2020, published 2023) one finds EC50, DC50 and IC50 data, which are given here for ten compounds.

Assay [1] deals with MIA PaCa-2 human pancreatic carcinoma. Description: MIA PaCa-2 CCK-8 proliferation assay. The class given is cell-based. The following applies: Homo sapiens, MIA PaCa-2, 72 h, MIA PaCa-2 cells. The gist of the method:
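Percent inhibition derived from CCK-8 optical signal, normalised between DMSO-only cells (0%) and cell-free medium containing DMSO as background. Cells: MIA PaCa-2 carrying 2 KRAS(G12C) copies; NCI-H358, NCI-H23 carrying 1 copy apiece. Concentrations spanned 1.02 nM–20 μM in threefold increments.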
(Tetrazolium assays rely on reduction of a dye to a coloured formazan, in cell work by metabolically active cells.)

Assay [2] concerns the target T1, KRAS(G12C) (Homo sapiens, UniProt P01116, G12C). Description: KRAS(G12C) Western blot protein degradation assay in LU65A cells. The class given is cell-based. Further details: LU65A human lung cancer cell line, which expresses KRAS(G12C); host or cells: LU65A. The following applies: 6 hr. The procedure: The following cancer cell lines were employed: BT-474 human breast carcinoma (ATCC, #HTB-20); MIA PaCa-2 human pancreatic carcinoma [2 copies KRAS(G12C)](ATCC, #CRL-1420); NCI-H23 human non-small cell lung cancer [1 copy KRAS(G12C)](ATCC, #CRL-5800); NCI-H358 human non-small cell lung cancer [1 copy KRAS(G12C)](ATCC, #CRL-5807); LU65A human lung carcinoma (Pharmaron, Beijing, China). Cell lines were cultured essentially according to ATCC and Pharmaron recommendations.
KRAS(G12C) Western Blot Protein Degradation Assay
The MIA PaCa-2 human pancreatic carcinoma cell line and LU65A human lung cancer cell line, which expresses KRAS(G12C), were seeded in 6- or 12-well tissue culture plates, and after 1 hr, test compounds were added at various concentrations and incubated at 37° C./5% CO2 for 48 hr (MIA Paca-2) and 6 hr (LU65A) respectively. Cells were then washed with cold PBS, aspirated and cold RIPA buffer containing a protease/phosphatase inhibitor cocktail was added to lyse cells. After centrifugation, the total protein concentrations of cell lysates were determined using the BCA protein assay. Samples were normalized for equivalent protein concentrations, 5×SDS-PAGE loading buffer added and denatured at 100° C. for 10 min. 20 μl of each sample/well was loaded on a SDS-PAGE gel and electrophoresed for 20 min at 80 V, then 120 V for 1.5 hr. Gels were then electroblotted to nitrocellulose membranes using a wet-transfer method at 250 mA for 2.5 hr. Membranes were incubated with blocking buffer for 1 hr and washed 3 times with TBST for 5 min. Membranes were then incubated with anti-KRAS (Sigma-Aldrich, #SAB1404011) and anti-β-Actin monoclonal antibodies (Cell Signaling Technology, #3700) diluted in blocking buffer at 4° C. overnight per the manufacturer's recommendations. After washing 3 times, blots were incubated with appropriately labeled secondary antibodies for 1 hr at room temperature and washed again. Fluorescence imaging and quantitation was performed using a LI-COR Odyssey. Results was analyzed using GraphPad Prism 7 software. Compound degradation of was determined by the following equation and DC50 values (the concentration at which 50% of the maximal degradation of KRAS occurs) calculated using GraphPad Prism 7 software:
% Inhibition=100−(D−B)/(S−B)*100%. • S: Fluorescence intensity of cells with antibody • D: Fluorescence intensity of compound-treated cells with antibody • B: Fluorescence intensity of cells without antibody
Background: A western blot detects proteins with antibodies after separation by electrophoresis.

The target of assay [3] is T1, KRAS(G12C). Description: KRAS(G12C)/SOS1 homogeneous time-resolved fluorescence (HTRF) assay. On the set-up: purchased Cisbio 63ADK000CB16PEG. Conditions: absence of GTP, 4° C. for 3 hr, read-out: KRAS (G12C) binding. In a few lines: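 Three-hour incubation at 4 °C of 3-fold compound dilutions (lowest 1.02 nM) with KRAS(G12C), SOS1 and detection reagents, GTP absent. Disruption of the KRAS(G12C)/SOS1 complex detected by time-resolved fluorescence.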
Background: Time-resolved FRET reads energy transfer from a long-lived donor to a nearby acceptor.

T1 sequence (P01116 1-188 isoform P01116-2 G12C): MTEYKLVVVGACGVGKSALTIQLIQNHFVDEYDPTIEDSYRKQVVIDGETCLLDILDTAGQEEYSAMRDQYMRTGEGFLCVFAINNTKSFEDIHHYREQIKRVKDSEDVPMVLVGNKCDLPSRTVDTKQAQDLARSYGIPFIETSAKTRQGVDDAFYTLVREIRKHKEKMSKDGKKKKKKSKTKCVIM

In the case of `C=CC(=O)N1CCN(c2nc(OC[C@@H]3CC[C@H](CN4CCN(Cc5ccc(-n6c(C(=O)NCC)nnc6-c6cc(C(C)C)c(O)cc6O)cc5)CC4)N3C)nc3c2CCN(c2cccc4ccccc24)C3)C[C@@H]1CC#N` [Compound 288, 4-{4-[(4-{[(2R,5S)-5-[({4-[(3S)-3-(cyanomethyl)-4-(prop-2-enoyl)piperazin-1-yl]-7-(naphthalen-1-yl)-5H,6H,8H-pyrido[3,4-d]pyrimidin-2-yl}oxy)methyl]-1-methylpyrrolidin-2-yl]methyl}piperazin-1-yl)methyl]phenyl}-5-(2,4-dihydroxy-5-isopropylphenyl)-N-ethyl-1,2,4-triazole-3-carboxamide], in assay [1], the EC50 was below 100 nM. In addition, the DC50 on KRAS(G12C) [2] was above 1000 nM. Besides, the IC50 at KRAS(G12C) [3] is below 100 nM.

`C=CC(=O)N1CCN(c2nc(OC[C@@H]3CC[C@H](CN4CCN(C(=O)C5CCN(Cc6ccc(-n7c(O)nnc7-c7cc(C)c(O)cc7O)cc6)CC5)CC4)N3C)nc3c2CCN(c2cccc4ccccc24)C3)C[C@@H]1CC#N` [Compound 256, 2-[(2S)-4-(2-{[(2S,5R)-5-({4-[1-({4-[3-(2,4-dihydroxy-5-methylphenyl)-5-hydroxy-1,2,4-triazol-4-yl]phenyl}methyl)piperidine-4-carbonyl]piperazin-1-yl}methyl)-1-methylpyrrolidin-2-yl]methoxy}-7-(naphthalen-1-yl)-5H,6H,8H-pyrido[3,4-d]pyrimidin-4-yl)-1-(prop-2-enoyl)piperazin-2-yl]acetonitrile]: the EC50 in assay [1] is above 1000 nM. The same compound had a half-maximal degradation concentration (DC50) on KRAS(G12C) [2] above 1000 nM. The IC50 on KRAS(G12C) [3] is below 100 nM.

In the case of `C=CC(=O)N1CCN(c2nc(OC[C@@H]3C[C@H](N4CCN(CC5CCN(Cc6ccc(-n7c(C(=O)NCC)nnc7-c7cc(C(C)C)c(O)cc7O)cc6)CC5)CC4)CN3C)nc3c2CCN(c2cccc4cccc(Cl)c24)C3)C[C@@H]1CC#N` [Compound 276, 4-(4-{[4-({4-[(3S,5S)-5-({[7-(8-chloronaphthalen-1-yl)-4-[(3S)-3-(cyanomethyl)-4-(prop-2-enoyl)piperazin-1-yl]-5H,6H,8H-pyrido[3,4-d]pyrimidin-2-yl]oxy}methyl)-1-methylpyrrolidin-3-yl]piperazin-1-yl}methyl)piperidin-1-yl]methyl}phenyl)-5-(2,4-dihydroxy-5-isopropylphenyl)-N-ethyl-1,2,4-triazole-3-carboxamide], in assay [1], the EC50 was below 100 nM. This compound registered a DC50 at KRAS(G12C) [2] above 1000 nM. Besides, the IC50 on KRAS(G12C) [3] was below 100 nM.

Turning to `C=CC(=O)N1CCN(c2nc(OC[C@@H]3C[C@H](N4CCN(Cc5ccc(-n6c(C(=O)NCC)nnc6-c6cc(C(C)C)c(O)cc6O)cc5)CC4)CN3C)nc3c2CCN(c2cccc4cccc(C)c24)C3)C[C@@H]1CC#N` [Compound 280, 4-[4-({4-[(3S,5S)-5-[({4-[(3S)-3-(cyanomethyl)-4-(prop-2-enoyl)piperazin-1-yl]-7-(8-methylnaphthalen-1-yl)-5H,6H,8H-pyrido[3,4-d]pyrimidin-2-yl}oxy)methyl]-1-methylpyrrolidin-3-yl]piperazin-1-yl}methyl)phenyl]-5-(2,4-dihydroxy-5-iso-propylphenyl)-N-ethyl-1,2,4-triazole-3-carboxamide], the concentration giving a half-maximal response (EC50) in assay [1] was below 100 nM. Moreover, the DC50 on KRAS(G12C) [2] fell in the range of 100 to 1000 nM. Further, the IC50 at KRAS(G12C) [3] is below 100 nM.

`C=CC(=O)N1CCN(c2nc(OCCN3CCC(N4CCN(Cc5ccc(-n6c(O)nnc6-c6cc(C(C)C)c(O)cc6O)cc5)CC4)CC3)nc3c2CCN(c2cccc4cccc(Cl)c24)C3)C[C@@H]1CC#N` [Compound 237, (S)-2-(1-acryloyl-4-(7-(8-chloronaphthalen-1-yl)-2-(2-(4-(4-(4-(3-(2,4-dihydroxy-5-isopropylphenyl)-5-hydroxy-4H-1,2,4-triazol-4-yl)benzyl)piperazin-1-yl)piperidin-1-yl)ethoxy)-5,6,7,8-tetrahydropyrido[3,4-d]pyrimidin-4-yl)piperazin-2-yl)acetonitrile] displayed a half-maximal effective concentration (EC50) in assay [1] of 100 to 1000 nM. At KRAS(G12C) [2], this compound came in with a 50% degradation concentration (DC50) above 1000 nM. The IC50 on KRAS(G12C) [3] was in the range of 100 to 1000 nM.

`C=CC(=O)N1CCN(c2nc(OC[C@@H]3C[C@H](N4CCN(Cc5ccc(-n6c(O)nnc6-c6cc(C(C)C)c(O)cc6O)cc5)CC4)CN3C)nc3c2CCN(c2cccc4cccc(C)c24)C3)C[C@@H]1CC#N` [Compound 279, 2-[(2S)-4-(2-{[(2S,4S)-4-[4-({4-[3-(2,4-dihydroxy-5-isopropylphenyl)-5-hydroxy-1,2,4-triazol-4-yl]phenyl}methyl)piperazin-1-yl]-1-methylpyrrolidin-2-yl]methox-y}-7-(8-methylnaphthalen-1-yl)-5H,6H,8H-pyrido[3,4-d]pyrimidin-4-yl)-1-(prop-2-enoyl)piperazin-2-yl]acetonitrile] registered an EC50 in assay [1] of 100 to 1000 nM. In addition, the DC50 at KRAS(G12C) [2] was 100 to 1000 nM. The IC50 on KRAS(G12C) [3] is below 100 nM.

`C=CC(=O)N1CCN(c2nc(OC[C@@H]3C[C@H](N4CCN(C(=O)C5CCN(Cc6ccc(-n7c(O)nnc7-c7cc(C(C)C)c(O)cc7O)cc6)CC5)CC4)CN3C)nc3c2CCN(c2cccc4cccc(Cl)c24)C3)C[C@@H]1CC#N` [Compound 264, 2-[(2S)-4-[7-(8-chloronaphthalen-1-yl)-2-{[(2S,4S)-4-{4-[1-({4-[3-(2,4-dihydroxy-5-isopropylphenyl)-5-hydroxy-1,2,4-triazol-4-yl]phenyl}methyl)piperidine-4-carbonyl]piperazin-1-yl}-1-methylpyrrolidin-2-yl]methoxy}-5H,6H,8H-pyrido[3,4-d]pyrimidin-4-yl]-1-(prop-2-enoyl)piperazin-2-yl]acetonitrile] registered a half-maximal effective concentration (EC50) in assay [1] of 100 to 1000 nM. Moreover, on KRAS(G12C) [2], the half-maximal degradation concentration (DC50) fell in the range of 100 to 1000 nM. In addition, the IC50 on KRAS(G12C) [3] was below 100 nM.

In the case of `C=CC(=O)N1CCN(c2nc(OC[C@@H]3C[C@H](N4CCN(Cc5ccc(-n6c(O)nnc6-c6cc(C)c(O)cc6O)cc5)CC4)CN3C)nc3c2CCN(c2cccc4cccc(Cl)c24)C3)C[C@@H]1CC#N` [Compound 252, 2-[(2S)-4-[7-(8-chloronaphthalen-1-yl)-2-{[(2S,4S)-4-[4-({4-[3-(2,4-dihydroxy-5-methylphenyl)-5-hydroxy-1,2,4-triazol-4-yl]phenyl}methyl)piperazin-1-yl]-1-methylpyrrolidin-2-yl]methoxy}-5H,6H,8H-pyrido[3,4-d]pyrimidin-4-yl]-1-(prop-2-enoyl)piperazin-2-yl]acetonitrile], the half-maximal effective concentration (EC50) in assay [1] is above 1000 nM. The compound also yielded a DC50 at KRAS(G12C) [2] above 1000 nM. Further, the IC50 at KRAS(G12C) [3] was below 100 nM.

In assay [1], `C=C(F)C(=O)N1CCN(c2nc(OC[C@@H]3CC[C@H](CN4CCN(Cc5ccc(-n6c(C(=O)NCC)nnc6-c6cc(C(C)C)c(O)cc6O)cc5)CC4)N3C)nc3c2CCN(c2cccc4ccccc24)C3)C[C@@H]1CC#N` [Compound 287, 4-{4-[(4-{[(2R,5S)-5-[({4-[(3S)-3-(cyanomethyl)-4-(2-fluoroprop-2-enoyl)piperazin-1-yl]-7-(naphthalen-1-yl)-5H,6H,8H-pyrido[3,4-d]pyrimidin-2-yl}oxy)methyl]-1-methylpyrrolidin-2-yl]methyl}piperazin-1-yl)methyl]phenyl}-5-(2,4-dihydroxy-5-isopropylphenyl)-N-ethyl-1,2,4-triazole-3-carboxamide] registered an EC50 below 100 nM. Besides, on KRAS(G12C) [2], the DC50 was above 1000 nM. Further, at KRAS(G12C) [3], the IC50 is 100 to 1000 nM.

`C=C(F)C(=O)N1CCN(c2nc(OC[C@@H]3CC[C@H](CN4CCN(Cc5ccc(-n6c(O)nnc6-c6cc(C(C)C)c(O)cc6O)cc5)CC4)N3C)nc3c2CCN(c2cccc4ccccc24)C3)C[C@@H]1CC#N` [Compound 286, 2-[(2S)-4-(2-{[(2S,5R)-5-{[4-({4-[3-(2,4-dihydroxy-5-isopropylphenyl)-5-hydroxy-1,2,4-triazol-4-yl]phenyl}methyl)piperazin-1-yl]methyl}-1-methylpyrrolidin-2-yl]methoxy}-7-(naphthalen-1-yl)-5H,6H,8H-pyrido[3,4-d]pyrimidin-4-yl)-1-(2-fluoroprop-2-enoyl)piperazin-2-yl]acetonitrile] gave a 50% effective concentration (EC50) in assay [1] below 100 nM. This compound also came in with a 50% degradation concentration (DC50) at KRAS(G12C) [2] above 1000 nM. Also, at KRAS(G12C) [3], the IC50 was in the range of 100 to 1000 nM.
